Experimental data from ChEMBL document CHEMBL4673278, “Identification and Characterization of a Peptide from the Stony Coral Heliofungia actiniformis” (J Nat Prod, 2020).
Active and inactive are the calls of the source. The rule behind the calls is not given here. Bridge positions count the residues as written; N and C are the ends. Peptide text beside a SMILES is read from it.

Legend:
Albumin [1] = biological target: T1, Albumin (Homo sapiens, UniProt P02768); test: Binding affinity to human serum albumin assessed as remaining parent compound at 3 mM measured up to 24 hrs by RP-HPLC analysis; format: ADME, cell-free; conditions: read-out: Activity
Staphylococcus aureus = test: Antibacterial activity against methicillin-resistant Staphylococcus aureus assessed as reduction in microbial growth at 0.024 to 0.113 mg/ml after 270 mins by microdilution assay; format: functional, organism-based; conditions: dose 0.024-0.113 mg/ml
Streptococcus pyogenes = test: Antibacterial activity against Streptococcus pyogenes assessed as reduction in microbial growth at 0.024 to 0.113 mg/ml after 270 mins by microdilution assay; format: functional, organism-based; conditions: dose 0.024-0.113 mg/ml
Escherichia coli = test: Antibacterial activity against Escherichia coli assessed as reduction in microbial growth at 0.024 to 0.113 mg/ml after 270 mins by microdilution assay; format: functional, organism-based; conditions: dose 0.024-0.113 mg/ml
Pseudomonas aeruginosa = test: Antibacterial activity against Pseudomonas aeruginosa assessed as reduction in microbial growth at 0.024 to 0.113 mg/ml after 270 mins by microdilution assay; format: functional, organism-based; conditions: dose 0.024-0.113 mg/ml
Klebsiella pneumoniae = test: Antibacterial activity against Klebsiella pneumoniae assessed as reduction in microbial growth at 0.024 to 0.113 mg/ml after 270 mins by microdilution assay; format: functional, organism-based; conditions: dose 0.024-0.113 mg/ml
Serratia marcescens = test: Antibacterial activity against Serratia marcescens assessed as reduction in microbial growth at 0.024 to 0.113 mg/ml after 270 mins by microdilution assay; format: functional, organism-based; conditions: dose 0.024-0.113 mg/ml
Streptococcus pneumoniae = test: Antibacterial activity against Streptococcus pneumoniae assessed as reduction in microbial growth at 0.024 to 0.113 mg/ml after 270 mins by microdilution assay; format: functional, organism-based; conditions: dose 0.024-0.113 mg/ml
Enterococcus faecalis = test: Antibacterial activity against Enterococcus faecalis assessed as reduction in microbial growth at 0.024 to 0.113 mg/ml after 270 mins by microdilution assay; format: functional, organism-based; conditions: dose 0.024-0.113 mg/ml
Vibrio harveyi = test: Antibacterial activity against Vibrio harveyi assessed as reduction in microbial growth at 0.024 to 0.113 mg/ml after 270 mins by microdilution assay; format: functional, organism-based; conditions: dose 0.024-0.113 mg/ml
[2] = system: Pseudoalteromonas shioyasakiensis; test: Antibacterial activity against Pseudoalteromonas […] assessed as reduction in microbial growth at 0.024 to 0.113 mg/ml after 270 mins by microdilution assay; format: functional; conditions: dose 0.024-0.113 mg/ml
Vibrio mediterranei = test: Antibacterial activity against Vibrio shilonii assessed as reduction in microbial growth at 0.024 to 0.113 mg/ml after 270 mins by microdilution assay; format: functional; conditions: dose 0.024-0.113 mg/ml
[3] = system: Tenacibaculum skagerrakense; test: Antibacterial activity against Tenacibaculum skagerrakense assessed as reduction in microbial growth at 0.024 to 0.113 mg/ml after 270 mins by microdilution assay; format: functional; conditions: dose 0.024-0.113 mg/ml
Vibrio coralliilyticus = test: Antibacterial activity against Vibrio coralliilyticus assessed as reduction in microbial growth at 0.024 to 0.113 mg/ml after 270 mins by microdilution assay; format: functional; conditions: dose 0.024-0.113 mg/ml
Alteromonas macleodii = test: Antibacterial activity against Alteromonas macleodii assessed as reduction in microbial growth at 0.024 to 0.113 mg/ml after 270 mins by microdilution assay; format: functional; conditions: dose 0.024-0.113 mg/ml
[4] = Cytotoxicity against human PBMC cells assessed as reduction in cell viability at 5 to 50 ug/ml measured up to 48 hrs by CellTox Green assay; format: cell-based; conditions: dose 5-50 µg/ml
PBMC = test: Antiinflammatory activity against LPS-induced human PBMC cells assessed as reduction in TNF-alpha expression at 7.5 to 100 ug/ml by ELISA; format: functional, cell-based; conditions: dose 7.5-100 µg/ml
Albumin [5] = biological target: T1, Albumin; test: Binding affinity to albumin (unknown origin) at 3 mM measured up to 24 hrs by RP-HPLC analysis; format: ADME, cell-free; conditions: serum, 3000 µM

T1 sequence (P02768 whole entry): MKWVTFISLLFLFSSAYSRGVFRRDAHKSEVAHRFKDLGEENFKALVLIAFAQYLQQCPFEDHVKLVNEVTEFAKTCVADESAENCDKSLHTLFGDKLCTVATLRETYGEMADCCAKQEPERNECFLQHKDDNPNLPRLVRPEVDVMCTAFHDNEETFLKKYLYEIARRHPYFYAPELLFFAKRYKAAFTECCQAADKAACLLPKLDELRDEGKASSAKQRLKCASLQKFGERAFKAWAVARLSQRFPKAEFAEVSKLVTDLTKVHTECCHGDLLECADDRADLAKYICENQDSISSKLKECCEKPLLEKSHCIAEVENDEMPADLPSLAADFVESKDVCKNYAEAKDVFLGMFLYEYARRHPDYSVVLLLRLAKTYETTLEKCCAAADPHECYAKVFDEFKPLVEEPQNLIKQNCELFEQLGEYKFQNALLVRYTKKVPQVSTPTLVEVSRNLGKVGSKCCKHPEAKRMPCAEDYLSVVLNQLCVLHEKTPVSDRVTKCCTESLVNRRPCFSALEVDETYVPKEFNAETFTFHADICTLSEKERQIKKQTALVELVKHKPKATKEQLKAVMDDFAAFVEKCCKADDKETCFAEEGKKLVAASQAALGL

| Structure (SMILES) | remaining at 24 h, 3000 µM (Albumin [1]) [%] | Activity (Staphylococcus aureus) | Activity (Streptococcus pyogenes) | Activity (Escherichia coli) | Activity (Pseudomonas aeruginosa) | Activity (Klebsiella pneumoniae) | Activity (Serratia marcescens) | Activity (Streptococcus pneumoniae) | Activity (Enterococcus faecalis) | Activity (Vibrio harveyi) | Activity [2] | Activity (Vibrio mediterranei) | Activity [3] | Activity (Vibrio coralliilyticus) | Activity (Alteromonas macleodii) | Activity [4] | Activity (PBMC) | Activity (Albumin [5]) |
| --- | --- | --- | --- | --- | --- | --- | --- | --- | --- | --- | --- | --- | --- | --- | --- | --- | --- | --- |
| CC[C@H](C)[C@H](NC(=O)[C@@H](NC(=O)[C@@H](N)Cc1ccccc1)[C@H](C)O)C(=O)N[C@@H](Cc1ccc(O)cc1)C(=O)N1CCC[C@H]1C(=O)NCC(=O)N[C@H]1CSSC[C@@H](C(=O)O)NC(=O)[C@H](Cc2ccccc2)NC(=O)[C@H](CC(C)C)NC(=O)CNC(=O)[C@H](Cc2c[nH]cn2)NC1=O | 85 | – | – | – | – | – | – | – | – | – | – | – | – | – | – | – | – | – |
| CC[C@H](C)[C@@H]1NC(=O)[C@H](CC(C)C)NC(=O)CNC(=O)[C@H](Cc2ccccc2)NC(=O)[C@@H]2CCCN2C(=O)[C@H]([C@@H](C)O)NC(=O)[C@H](Cc2ccc(O)cc2)NC(=O)[C@H](Cc2c[nH]cn2)NC(=O)[C@@H](NC(=O)CN)CSSC[C@@H](C(=O)N[C@@H](Cc2ccccc2)C(=O)O)NC1=O (H-GCHYTPFGLICF-OH; disulfide 2-11) | 3 | Active | Active | inactive | inactive | inactive | inactive | inactive | inactive | inactive | inactive | inactive | inactive | inactive | inactive | Non-Toxic | Active | Active |
